Measured values published in ChEMBL document CHEMBL1221220, “Transport and signaling via the amino acid binding site of the yeast Gap1 amino acid transceptor” (Nat Chem Biol, 2009).
Positions count from the first letter of the chain named. Calls of active or inactive are those of the source. No cut-off for these calls is given here.

Columns and labels:
[1] = tested on: T1, General amino-acid permease GAP1 (Saccharomyces cerevisiae), P19145 [V381C]; test: Induction of yest Gap1 V381C mutant-mediated trehalose activation at 10 mM
T1 sequence (whole entry): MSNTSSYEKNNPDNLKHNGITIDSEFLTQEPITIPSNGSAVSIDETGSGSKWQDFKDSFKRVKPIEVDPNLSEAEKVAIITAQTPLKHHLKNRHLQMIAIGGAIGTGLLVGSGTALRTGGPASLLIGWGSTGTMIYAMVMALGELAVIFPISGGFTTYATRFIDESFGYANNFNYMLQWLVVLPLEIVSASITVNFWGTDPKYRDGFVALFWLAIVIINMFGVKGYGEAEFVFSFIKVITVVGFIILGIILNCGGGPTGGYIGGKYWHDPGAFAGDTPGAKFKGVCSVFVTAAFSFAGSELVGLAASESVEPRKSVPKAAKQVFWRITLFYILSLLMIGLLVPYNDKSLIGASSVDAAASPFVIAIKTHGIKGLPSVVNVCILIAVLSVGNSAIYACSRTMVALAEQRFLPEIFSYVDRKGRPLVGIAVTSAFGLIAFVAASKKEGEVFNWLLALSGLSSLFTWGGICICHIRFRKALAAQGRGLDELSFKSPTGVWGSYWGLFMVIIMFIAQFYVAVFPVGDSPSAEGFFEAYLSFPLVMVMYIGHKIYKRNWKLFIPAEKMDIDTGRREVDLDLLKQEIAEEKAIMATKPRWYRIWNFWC

[2] = tested on: T2, General amino-acid permease GAP1 (Saccharomyces cerevisiae), P19145 [N391C]; test: Induction of yeast Gap1 N391C mutant-mediated trehalose activation at 2 mM in presence of 10 mM MTSEA treated before compound addition
T2 sequence (whole entry): T1 sequence (whole entry) with C381V, N391C

[3] = tested on: General amino-acid permease GAP1 (Saccharomyces cerevisiae), P19145 [Y395C]; test: Inhibition of yeast Gap1 Y395C mutant-mediated trehalose activation at 10 mM
Chain of General amino-acid permease GAP1 (Saccharomyces cerevisiae), P19145 [Y395C] (P19145 whole entry Y395C): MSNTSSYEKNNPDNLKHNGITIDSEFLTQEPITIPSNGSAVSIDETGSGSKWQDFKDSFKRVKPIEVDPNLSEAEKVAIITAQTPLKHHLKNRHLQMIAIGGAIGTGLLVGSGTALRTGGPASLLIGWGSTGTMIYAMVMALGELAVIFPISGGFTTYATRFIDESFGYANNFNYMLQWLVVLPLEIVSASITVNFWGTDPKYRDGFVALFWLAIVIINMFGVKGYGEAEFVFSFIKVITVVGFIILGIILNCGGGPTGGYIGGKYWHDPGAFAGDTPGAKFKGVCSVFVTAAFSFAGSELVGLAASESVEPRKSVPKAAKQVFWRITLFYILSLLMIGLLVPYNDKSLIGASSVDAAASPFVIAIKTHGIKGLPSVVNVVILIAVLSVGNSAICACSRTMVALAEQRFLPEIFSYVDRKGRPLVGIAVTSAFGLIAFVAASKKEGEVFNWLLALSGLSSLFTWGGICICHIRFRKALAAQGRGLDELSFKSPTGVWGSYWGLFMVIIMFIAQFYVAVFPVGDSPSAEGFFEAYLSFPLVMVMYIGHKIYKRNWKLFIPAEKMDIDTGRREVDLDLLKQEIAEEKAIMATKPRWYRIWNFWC

[4] = tested on: T3, General amino-acid permease GAP1 (Saccharomyces cerevisiae), P19145 [A403C]; test: Induction of yeast Gap1 A403C mutant-mediated trehalose activation at 10 mM
T3 sequence (whole entry): T1 sequence (whole entry) with C381V, A403C

[5] = tested on: General amino-acid permease GAP1 (Saccharomyces cerevisiae), P19145 [I394C]; test: Inhibition of yeast Gap1 I394C mutant-mediated trehalose activation at 10 mM
Chain of General amino-acid permease GAP1 (Saccharomyces cerevisiae), P19145 [I394C] (P19145 whole entry I394C): as the sequence (P19145 whole entry Y395C) above, with I394C, C395Y counted along it

[6] = tested on: T4, General amino-acid permease GAP1 (Saccharomyces cerevisiae), P19145 [C397C]; test: Induction of yeast Gap1 C397C mutant-mediated […] activation at 2 mM in presence of 10 mM MTSEA treated before compound addition
T4 sequence (whole entry): T1 sequence (whole entry) with C381V

NC(=O)NCCC[C@H](N)C(=O)O
Activity [1]: inactive | inhibition [2]: Active | inhibition [3]: Active | Activity [4]: inactive | inhibition [5]: Active | inhibition [6]: Active
